Measurements published in PubChem BioAssay (NCI).
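Values below derive from 48-hour exposures of cells grown in 96-well plates, with endpoints linearly interpolated between the two concentrations bracketing the appropriate inhibition level. TGI: total growth inhibition.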

Tests used:
Assay in all cases: growth of human tumour cells (NCI), 48 h
UO-31 renal = test system: UO-31 renal
OVCAR-8 ovarian = test system: OVCAR-8 ovarian
K-562 leukemia = test system: K-562 leukemia
NCI-H522 lung = test system: NCI-H522 lung
A549 NSCLC = test system: A549 NSCLC
EKVX NSCLC = test system: EKVX NSCLC
NCI-H460 lung = test system: NCI-H460 lung
A498 renal = test system: A498 renal
CCRF-CEM leukemia = test system: CCRF-CEM leukemia
HOP-92 NSCLC = test system: HOP-92 NSCLC
DLD-1 colon = test system: DLD-1 colon
SK-OV-3 ovarian = test system: SK-OV-3 ovarian
NCI-H226 lung = test system: NCI-H226 lung
NCI-H23 lung = test system: NCI-H23 lung
IGROV1 ovarian = test system: IGROV1 ovarian
SF-295 CNS = test system: SF-295 CNS
HOP-18 NSCLC = test system: HOP-18 NSCLC
M14 melanoma = test system: M14 melanoma
UACC-257 melanoma = test system: UACC-257 melanoma
HOP-62 NSCLC = test system: HOP-62 NSCLC
KM12 colon = test system: KM12 colon
ACHN renal = test system: ACHN renal
MOLT-4 leukemia = test system: MOLT-4 leukemia
SF-268 CNS = test system: SF-268 CNS
HCT-15 colon = test system: HCT-15 colon
HL-60(TB) leukemia = test system: HL-60(TB) leukemia
SK-MEL-5 melanoma = test system: SK-MEL-5 melanoma
SK-MEL-28 melanoma = test system: SK-MEL-28 melanoma
HCC-2998 colon = test system: HCC-2998 colon
SF-539 CNS = test system: SF-539 CNS
M19-MEL melanoma = test system: M19-MEL melanoma
OVCAR-3 ovarian = test system: OVCAR-3 ovarian
RPMI-8226 leukemia = test system: RPMI-8226 leukemia
MALME-3M melanoma = test system: MALME-3M melanoma
COLO 205 colon = test system: COLO 205 colon
HCT-116 colon = test system: HCT-116 colon
786-0 renal = test system: 786-0 renal
TK-10 renal = test system: TK-10 renal
OVCAR-5 ovarian = test system: OVCAR-5 ovarian
HT29 colon = test system: HT29 colon
U251 CNS = test system: U251 CNS
SK-MEL-2 melanoma = test system: SK-MEL-2 melanoma
LOX IMVI melanoma = test system: LOX IMVI melanoma
SNB-75 CNS = test system: SNB-75 CNS
LXFL 529 NSCLC = test system: LXFL 529 NSCLC
SR leukemia = test system: SR leukemia
OVCAR-4 ovarian = test system: OVCAR-4 ovarian
DMS 273 small cell lung = test system: DMS 273 small cell lung
DMS 114 small cell lung = test system: DMS 114 small cell lung
SW-620 colon = test system: SW-620 colon
SNB-19 CNS = test system: SNB-19 CNS
SNB-78 CNS = test system: SNB-78 CNS
UACC-62 melanoma = test system: UACC-62 melanoma
SN12C renal = test system: SN12C renal
CAKI-1 renal = test system: CAKI-1 renal
KM20L2 colon = test system: KM20L2 colon
RXF 393 renal = test system: RXF 393 renal

COc1ccc2[nH]c3c(=O)[nH]ncc3c2c1
TGI (UO-31 renal): > 100 µM
TGI (OVCAR-8 ovarian): > 100 µM
TGI (K-562 leukemia): > 100 µM
TGI (NCI-H522 lung): > 100 µM
TGI (A549 NSCLC): > 100 µM
TGI (EKVX NSCLC): > 100 µM
TGI (NCI-H460 lung): > 100 µM
TGI (A498 renal): > 100 µM
TGI (CCRF-CEM leukemia): > 100 µM
TGI (HOP-92 NSCLC): > 100 µM
TGI (DLD-1 colon): > 100 µM
TGI (SK-OV-3 ovarian): > 100 µM
TGI (NCI-H226 lung): > 100 µM
TGI (NCI-H23 lung): > 100 µM
TGI (IGROV1 ovarian): > 100 µM
TGI (SF-295 CNS): > 100 µM
TGI (HOP-18 NSCLC): > 100 µM
TGI (M14 melanoma): > 100 µM
TGI (UACC-257 melanoma): > 100 µM
TGI (HOP-62 NSCLC): > 100 µM
TGI (KM12 colon): > 100 µM
TGI (ACHN renal): > 100 µM
TGI (MOLT-4 leukemia): > 100 µM
TGI (SF-268 CNS): > 100 µM
TGI (HCT-15 colon): > 100 µM
TGI (HL-60(TB) leukemia): > 100 µM
TGI (SK-MEL-5 melanoma): > 100 µM
TGI (SK-MEL-28 melanoma): > 100 µM
TGI (HCC-2998 colon): > 100 µM
TGI (SF-539 CNS): > 100 µM
TGI (M19-MEL melanoma): > 100 µM
TGI (OVCAR-3 ovarian): > 100 µM
TGI (RPMI-8226 leukemia): > 100 µM
TGI (MALME-3M melanoma): > 100 µM
TGI (COLO 205 colon): > 100 µM
TGI (HCT-116 colon): > 100 µM
TGI (786-0 renal): > 100 µM
TGI (TK-10 renal): > 100 µM
TGI (OVCAR-5 ovarian): > 100 µM
TGI (HT29 colon): > 100 µM
TGI (U251 CNS): > 100 µM
TGI (SK-MEL-2 melanoma): > 100 µM
TGI (LOX IMVI melanoma): > 100 µM
TGI (SNB-75 CNS): 57.4 µM
TGI (LXFL 529 NSCLC): > 100 µM
TGI (SR leukemia): > 100 µM
TGI (OVCAR-4 ovarian): > 100 µM
TGI (DMS 273 small cell lung): > 100 µM
TGI (DMS 114 small cell lung): > 100 µM
TGI (SW-620 colon): > 100 µM
TGI (SNB-19 CNS): > 100 µM
TGI (SNB-78 CNS): > 100 µM
TGI (UACC-62 melanoma): > 100 µM

CC1(C)COC(c2c(-c3ccccc3)noc2CS(=O)c2ccccc2)=N1 (centres undefined)
TGI (UO-31 renal): > 100 µM
TGI (OVCAR-8 ovarian): > 100 µM
TGI (K-562 leukemia): > 100 µM
TGI (SN12C renal): > 100 µM
TGI (NCI-H522 lung): > 100 µM
TGI (A549 NSCLC): > 100 µM
TGI (EKVX NSCLC): > 100 µM
TGI (NCI-H460 lung): > 100 µM
TGI (A498 renal): > 100 µM
TGI (CCRF-CEM leukemia): > 100 µM
TGI (DLD-1 colon): > 100 µM
TGI (SK-OV-3 ovarian): > 100 µM
TGI (NCI-H226 lung): > 100 µM
TGI (NCI-H23 lung): > 100 µM
TGI (IGROV1 ovarian): > 100 µM
TGI (SF-295 CNS): > 100 µM
TGI (HOP-18 NSCLC): 86.4 µM
TGI (M14 melanoma): > 100 µM
TGI (UACC-257 melanoma): > 100 µM
TGI (HOP-62 NSCLC): > 100 µM
TGI (KM12 colon): > 100 µM
TGI (ACHN renal): > 100 µM
TGI (MOLT-4 leukemia): > 100 µM
TGI (SF-268 CNS): > 100 µM
TGI (HCT-15 colon): > 100 µM
TGI (HL-60(TB) leukemia): 84.6 µM
TGI (SK-MEL-5 melanoma): > 100 µM
TGI (SK-MEL-28 melanoma): > 100 µM
TGI (HCC-2998 colon): > 100 µM
TGI (SF-539 CNS): > 100 µM
TGI (M19-MEL melanoma): > 100 µM
TGI (OVCAR-3 ovarian): > 100 µM
TGI (CAKI-1 renal): > 100 µM
TGI (KM20L2 colon): > 100 µM
TGI (RPMI-8226 leukemia): > 100 µM
TGI (MALME-3M melanoma): > 100 µM
TGI (COLO 205 colon): > 100 µM
TGI (HCT-116 colon): > 100 µM
TGI (786-0 renal): > 100 µM
TGI (TK-10 renal): > 100 µM
TGI (OVCAR-5 ovarian): > 100 µM
TGI (HT29 colon): > 100 µM
TGI (U251 CNS): > 100 µM
TGI (SK-MEL-2 melanoma): 70.2 µM
TGI (LOX IMVI melanoma): > 100 µM
TGI (SNB-75 CNS): > 100 µM
TGI (LXFL 529 NSCLC): > 100 µM
TGI (SR leukemia): > 100 µM
TGI (OVCAR-4 ovarian): > 100 µM
TGI (DMS 273 small cell lung): > 100 µM
TGI (DMS 114 small cell lung): 99.1 µM
TGI (SW-620 colon): > 100 µM
TGI (RXF 393 renal): > 100 µM
TGI (SNB-19 CNS): > 100 µM
TGI (SNB-78 CNS): > 100 µM
TGI (UACC-62 melanoma): 76.9 µM
